Test [1] concerns FGF23. The following applies: Hansen et al. 2012; cited from earlier work.
The test system of test [2] is PTH. As to conditions: Hansen et al. 2012; cited from earlier work.
Test [3] has as its system PTH. The following applies: single intravenous dose, patients on hemodialysis; cited from earlier work.
For test [4], the system named is maintenance hemodialysis patients with secondary hyperparathyroidism (SHPT) and LVH. The experiment in a line: Single blinded randomized 12-month trial, etelcalcetide vs alfacalcidol: left ventricular mass index (LVMI) by cardiac MRI. Format: in vivo, human. The following applies: for estimated adjusted mean difference in the change of LVMI: ANCOVA, 1 year vs baseline, etelcalcetide group compared to alfacalcidol group. The text has this:
For the study, 62 patients were recruited, of which 30 patients were randomized to treatment with alfacalcidol and 32 to treatment with etelcalcetide. During the course of the 12-month study, ten patients dropped out during follow-up. Data for the main outcome (left ventricular mass index, LVMI in g/m^2) was available for the patients at baseline (enrollment) and at the 1-year follow-up, except for three patients as noted in Example 1. FIG. 1A illustrates a flow chart of the study design. Turning now to FIGS. 2A-2B, data from the study is presented. […] Thus, the 10 patients who dropped out during the study are removed from the analysis. FIG. 2A is a boxplot of the unadjusted primary endpoint for the alfacalcidol and the etelcalcetide treatment groups. […] The unadjusted comparison of the primary endpoint by a 2-sample equal variances t-test yields a significant difference in LVMI change between the treatment groups (p=0.007156). Due to the non-normal distribution of the data, a non-parametric 2-sample Wilcoxon test was also performed to confirm the result (p=0.0006661). An analysis adjusted for the stratification of the randomization was conducted using an Analysis of Covariance (ANCOVA) with outcome variable “Change of LVMI” and using the randomization stratification factors (residual kidney function, center of recruitment) as well as the LVMI at baseline as covariates. […] The associated p-value was 0.00809, in accordance with the result of the unadjusted analysis. In another analysis of the data, referred to as in intention-to-treat analysis, all patients who were randomized for the study are included in the data analysis. Thus, for the 10 patients who dropped out during the study all available measurements are used at the time they were taken. Out of those, for the 3 patients without MRI measurements the outcome values are imputed (obtained as mean values from patients of the same medication group with stratification factors identical to the patient with missing data). Final data on the primary study endpoint, difference of LVMI (g/m^2) at 1 year and LVMI at baseline, for the 62 patients who were randomized for the study is shown in FIG. 2B. The unadjusted comparison of the primary endpoint by a 2-sample equal variances t-test yields a significant difference in LVMI change between the treatment groups (p=0.04691). However, due to the distribution of the data the non-parametric Wilcoxon test is deemed more reliable and confirms the results (p=0.006098). […] The associated p-value was 0.031, in accordance with the result of the unadjusted analysis. Study Overview: A single blinded randomized trial of twelve months to test the effects of etelcalcetide compared to alfacalcidol on LVH and cardiac fibrosis in maintenance hemodialysis patients with secondary hyperparathyroidism (SHPT) was conducted. Both treatment regimens were titrated to equally suppress SHPT. Patients treated three times weekly with hemodialysis for between about 3 months and about 3 years and with parathyroid hormone (PTH) levels ≥300 pg/ml and LVH were enrolled. The primary study endpoint was left ventricular mass index (LVMI) determined in g/m^2 at baseline and at 12 months by cardiac MRI (cMRI). […] Due to the strong association of volume overload and LVH, randomization was additionally stratified by residual kidney function and regular body composition monitoring was performed to control patients' volume status. […]

In test [5] the test system is 1.25(OH)2 vitamin D. The following applies: after a single 10 mg dose; cited from earlier work.
Test [6] deals with FGF23. The experiment in a line: Trial secondary endpoint: FGF23 blood levels. As to conditions: 55 individuals, 12-month follow-up, FIGS. 4A-4B, versus alfacalcidol group. The test is classed as in vivo, human. The text has this:
In FIGS. 4A-4B, the data on FGF23 blood levels for the subjects in each treatment group is shown. On average, 8 measurements were available throughout follow-up for each individual.
(§1) Outcomes measurements: Laboratory analyses: Biochemical data was collected prior to hemodialysis at baseline and periodically (e.g., intact PTH, calcium, phosphate, 25-OH-Vit-D, 1,25-(OH)2-Vit-D every two weeks during the first 10 weeks followed by measurements every 4 weeks; while intact FGF23, s-klotho, proBNP and pre+postdialysis TnT was measured in 8-week-intervals). Additionally, a RAAS fingerprint was conducted before start and at the end of the treatment phase. The RAAS fingerprint is a mass spectrometry-based quantification of angiotensin metabolites. […]
(§2) Intact PTH, calcium and phosphate were analyzed in serum samples using the Cobas assay (Roche, reference range of PTH: 15-65 pg/mL, calcium: 2.15-2.55 mmol/L, phosphate: 0.81-1.45 mmol/L). Vitamin D was measured using serum samples and a chemiluminescent-immunoassays (Diasorin, reference range of 1.25-(OH)2-VitD: 19.9-79.3 pg/mL; 25-OH-Vit-D 75-250 nmol/L). Ionized calcium was measured during every dialysis session (using blood gas analysis (ABL 800 Flex, Drott)). Intact FGF23 was analyzed in plasma samples using chemiluminescent—Immunoassays (DiaSorin, reference range 23.2-95.4 pg/mL). […]

The test system of test [7] is FGF23. As to conditions: at 24 hours after a single 10 mg dose; cited from earlier work.
The subject of test [8] is calcium. The experiment in a line: Trial secondary endpoint: calcium blood levels. The test is classed as in vivo, human. The following applies: 55 individuals, 12-month follow-up, FIGS. 5A-5B, versus alfacalcidol group.
Text: In FIGS. 5A-5B, the calcium blood levels for the subjects in each treatment group is shown. On average, 17 measurements were available throughout follow-up for each individual.
as §1, §2

“Also recorded” adds a separate entry of the source. A value given as a limit tells only on which side of the number the result lay.

Turning to `C=C1/C(=C\C=C2/CCC[C@]3(C)[C@@H]([C@H](C)CCCC(C)C)CC[C@@H]23)C[C@@H](O)C[C@@H]1O` [Alfacalcidol], the “increase of FGF23 levels” value in test [1] is recorded as “threefold”. Further, the “decrease of PTH levels” value in test [2] is given as ≥ 30%.

`CC(=O)N[C@H](CSSC[C@H](N)C(=O)O)C(=O)N[C@H](C)C(=O)N[C@H](CCCNC(=N)N)C(=O)N[C@H](CCCNC(=N)N)C(=O)N[C@H](CCCNC(=N)N)C(=O)N[C@H](C)C(=O)N[C@H](CCCNC(=N)N)C(N)=O` [etelcalcetide, (2R)-3-[[(2S)-2-acetamido-3-[[(2R)-1-[[(2R) [[(2R)-1-[[(2R)-1-[[(2R)-1-[[(2R)-1-amino-5-(diaminomethydeneamino)-1-oxopentanyl]amino]-1-oxopropan-2-yl]amino]-5-(diaminomethydeneamino)-1-oxopentan-2-yl]amino]-5-(diaminomethydeneamino)-1-oxopentan-2-yl]amino]-5-(diaminomethydeneamino)-1-oxopentan-2-yl]amino]-1-oxopropan-2-yl]amino]-3-oxopropyl]disulfanyl]-2-aminopropanoic acid]: the “duration of lowering of serum levels of PTH” value in test [3] is recorded as “up to 72 hours”. Also, the “Prevention of LVH progression” value in test [4] (dialysis patients with sHPT, compared to alfacalcidol) is recorded as 6-8%. The LVMI progression entry in test [4] (dialysis patients with sHPT, compared to treatment with alfacalcidol) was “prevented LVMI progression”. The “estimated adjusted mean difference in the change of LVMI” value is on record as −6.2 (95% confidence interval −11.72 to −0.71) g/m^2 in test [4] (intention-to-treat analysis (62 randomized patients), p=0.031) and −8.2 (95% confidence interval −13.99 to −2.39) g/m^2 in test [4] (per-protocol analysis (52 patients who completed), p=0.00809). Moreover, the “effect on LVH and cardiac fibrosis” value in test [4] (patients under maintenance hemodialysis, through a suppression of FGF23) was “effectively ameliorates LVH and cardiac fibrosis”. The “effect on 1.25(OH)2 vitamin D levels” value in test [5] is “little or no effect”. Also, in test [6], the “FGF23 blood levels, overall measurements and longitudinal behavior” value is reported as “lower values which were decreasing over time; also recorded: decreased FGF23 levels”. Besides, in test [7], the “decrease of FGF23 levels” value is reported as “over 30%”. Moreover, the “calcium blood levels, overall measurements and longitudinal behavior” value in test [8] was “lower values which were decreasing over time”.

The values above are taken from patent publication US20230201313A1, “METHODS OF TREATING LEFT VENTRICLE HYPERTROPHY” (Amgen Inc., priority 2020, published 2023).
